Values joined by “and” are separate entries in the source; they are usually repeats but may differ in a detail not shown here. Equal entries are not always repeated. Toxic doses and inconclusive results are not listed.
System: L1210 leukemia ip in BDF1 mice, survival T/C
Test: NCI In Vivo Anticancer Drug Screen. Data for tumor model L1210 Leukemia (intraperitoneal) in B6D2F1 (BDF1) mice
Conditions: endpoint: mean survival time, higher = longer survival
Summary of the method: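 Each compound was tested against a transplantable tumor grown in mice. The endpoint was survival, with treated animals benchmarked against vehicle controls as a simple ratio.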

[1] = dose: 50.0 mg/kg/injection, schedule: Q01DX009 (ip), vehicle: saline
[2] = dose: 100.0 mg/kg/injection, schedule: Q01DX009 (ip), vehicle: saline
[3] = dose: 100.0 mg/kg/injection, schedule: Q04DX003 (ip), vehicle: saline
[4] = dose: 200.0 mg/kg/injection, schedule: Q01DX009 (ip), vehicle: saline
[5] = dose: 200.0 mg/kg/injection, schedule: Q04DX003 (ip), vehicle: saline
[6] = dose: 400.0 mg/kg/injection, schedule: Q04DX003 (ip), vehicle: saline
[7] = dose: 100.0 mg/kg/injection, schedule: Q01DX001 (ip), vehicle: Klucel (hydroxypropylcellulose) (HPC)
[8] = dose: 200.0 mg/kg/injection, schedule: Q01DX001 (ip), vehicle: Klucel (hydroxypropylcellulose) (HPC)
[9] = dose: 400.0 mg/kg/injection, schedule: Q01DX001 (ip), vehicle: Klucel (hydroxypropylcellulose) (HPC)
[10] = dose: 100.0 mg/kg/injection, schedule: Q01DX009 (ip), vehicle: Klucel (hydroxypropylcellulose) (HPC)
[11] = dose: 100.0 mg/kg/injection, schedule: Q04DX003 (ip), vehicle: Klucel (hydroxypropylcellulose) (HPC)
[12] = dose: 200.0 mg/kg/injection, schedule: Q01DX009 (ip), vehicle: Klucel (hydroxypropylcellulose) (HPC)
[13] = dose: 200.0 mg/kg/injection, schedule: Q04DX003 (ip), vehicle: Klucel (hydroxypropylcellulose) (HPC)
[14] = dose: 400.0 mg/kg/injection, schedule: Q04DX003 (ip), vehicle: Klucel (hydroxypropylcellulose) (HPC)

In the case of `CCC(C(=O)O)c1ccccc1` (stereo not given), the T/C [1] is reported as 93 % of control, the T/C [2] is reported as 97 % of control and the T/C [3] is reported as 89 % of control. The T/C [4] was 90 % of control, the T/C [5] was 90 % of control and the T/C [6] was 95 % of control.

With `CNc1nn[nH]n1` the T/C [3] was 100 % of control, the T/C [5] was 93 % of control and the T/C [6] was 89 % of control.

For `CC(C)(O)Cc1ccc(Br)cc1`, the T/C (dose: 50.0 mg/kg/injection, schedule: Q01DX009 (ip), vehicle: saline with Tween-80) was 95 % of control, the T/C (dose: 100.0 mg/kg/injection, schedule: Q01DX009 (ip), vehicle: saline with Tween-80) was 103 % of control and the T/C (dose: 200.0 mg/kg/injection, schedule: Q01DX009 (ip), vehicle: saline with Tween-80) was 111 % of control.

In the case of `O=C1c2cccc(Cl)c2C(=O)c2c(NCCO)cccc21`, the T/C [7] is reported as 96 % of control, the T/C [8] is reported as 101 % of control and the T/C [9] is reported as 97 % of control.

`Cc1ccc(NC(=O)c2c(Cl)c(Cl)c(Cl)c(Cl)c2C(=O)O)cc1Cl` was tested, and the T/C [10] was 100 % of control, the T/C [11] was 103 % of control and the T/C [12] was 98 % of control. For the same compound, the T/C [13] was 102 % of control and the T/C [14] was 96 % of control.

`CC(=O)Nc1ccn(C2OC(COC(C)=O)C(OC(C)=O)C2OC(C)=O)c(=O)n1` (stereo not given) was tested, and the T/C (dose: 6.3 mg/kg/injection, schedule: Q## X090 (ip), vehicle: carboxymethylcellulose (CMC)) was 94 % of control, the T/C (dose: 12.5 mg/kg/injection, schedule: Q## X090 (ip), vehicle: carboxymethylcellulose (CMC)) was 102 % of control and the T/C (dose: 18.0 mg/kg/injection, schedule: Q03HX024 (ip), vehicle: other) was 114 % of control. For the same compound, the T/C (dose: 25.0 mg/kg/injection, schedule: Q## X090 (ip), vehicle: carboxymethylcellulose (CMC)) was 97 % of control, the T/C (dose: 50.0 mg/kg/injection, schedule: Q## X090 (ip), vehicle: carboxymethylcellulose (CMC)) was 102 % of control and the T/C (dose: 53.0 mg/kg/injection, schedule: Q01DX Z (ip), vehicle: carboxymethylcellulose (CMC)) was 106 % of control. For the same compound, the T/C (dose: 75.0 mg/kg/injection, schedule: Q03HX024 (ip), vehicle: other) was 168 % of control, the T/C (dose: 79.0 mg/kg/injection, schedule: Q01DX Z (ip), vehicle: carboxymethylcellulose (CMC)) was 107 % of control and the T/C (dose: 119.0 mg/kg/injection, schedule: Q01DX Z (ip), vehicle: carboxymethylcellulose (CMC)) was 109 % of control. The T/C (dose: 125.0 mg/kg/injection, schedule: Q01DX009 (oral), vehicle: carboxymethylcellulose (CMC)) was 115 % of control, the T/C (dose: 125.0 mg/kg/injection, schedule: Q03HX024 (oral), vehicle: carboxymethylcellulose (CMC)) was 111 % of control and the T/C (dose: 125.0 mg/kg/injection, schedule: Q03HX024 (oral), vehicle: water) was 123 % of control. For the same compound, the T/C (dose: 150.0 mg/kg/injection, schedule: Q03HX024 (ip), vehicle: other) was 195 % of control, the T/C (dose: 150.0 mg/kg/injection, schedule: Q04DX003 (ip), vehicle: other) was 108 % of control and the T/C (dose: 178.0 mg/kg/injection, schedule: Q01DX Z (ip), vehicle: carboxymethylcellulose (CMC)) was 119 % of control. The T/C (dose: 178.0 mg/kg/injection, schedule: Q01DX Z (ip), vehicle: saline) was 116 % of control, the T/C (dose: 200.0 mg/kg/injection, schedule: Q01DX001 (ip), vehicle: carboxymethylcellulose (CMC)) was 101 % of control and the T/C (dose: 200.0 mg/kg/injection, schedule: Q01DX010 (oral), vehicle: carboxymethylcellulose (CMC)) was 112 % of control. The T/C (dose: 250.0 mg/kg/injection, schedule: Q03HX024 (oral), vehicle: carboxymethylcellulose (CMC)) was 113 % of control, the T/C (dose: 250.0 mg/kg/injection, schedule: Q03HX024 (oral), vehicle: water) was 121 % of control and the T/C (dose: 300.0 mg/kg/injection, schedule: Q03HX024 (ip), vehicle: other) was 228 % of control. The T/C (dose: 300.0 mg/kg/injection, schedule: Q04DX003 (ip), vehicle: other) was 115 % of control, the T/C (dose: 400.0 mg/kg/injection, schedule: Q01DX001 (ip), vehicle: carboxymethylcellulose (CMC)) was 103 % of control and the T/C (dose: 400.0 mg/kg/injection, schedule: Q01DX Z (ip), vehicle: saline) was 163 % of control. For the same compound, the T/C (dose: 500.0 mg/kg/injection, schedule: Q03HX024 (oral), vehicle: carboxymethylcellulose (CMC)) was 124 % of control, the T/C (dose: 600.0 mg/kg/injection, schedule: Q01DX009 (ip), vehicle: other) was 177 % of control and 184 % of control and the T/C (dose: 600.0 mg/kg/injection, schedule: Q01DX Z (ip), vehicle: carboxymethylcellulose (CMC)) was 124 % of control and 246 % of control. The T/C (dose: 600.0 mg/kg/injection, schedule: Q01DX Z (ip), vehicle: saline) was 166 % of control, the T/C (dose: 800.0 mg/kg/injection, schedule: Q01DX001 (ip), vehicle: carboxymethylcellulose (CMC)) was 101 % of control and the T/C (dose: 900.0 mg/kg/injection, schedule: Q01DX Z (ip), vehicle: carboxymethylcellulose (CMC)) was 175 % of control. For the same compound, the T/C (dose: 1000.0 mg/kg/injection, schedule: Q03HX024 (oral), vehicle: carboxymethylcellulose (CMC)) was 122 % of control, the T/C (dose: 1000.0 mg/kg/injection, schedule: Q03HX024 (oral), vehicle: water) was 208 % of control and the T/C (dose: 1200.0 mg/kg/injection, schedule: Q01DX009 (ip), vehicle: other) was 213 % of control and 228 % of control. The T/C (dose: 1200.0 mg/kg/injection, schedule: Q04DX003 (ip), vehicle: other) was 159 % of control, the T/C (dose: 1350.0 mg/kg/injection, schedule: Q01DX Z (ip), vehicle: carboxymethylcellulose (CMC)) was 295 % of control and the T/C (dose: 1600.0 mg/kg/injection, schedule: Q01DX001 (ip), vehicle: carboxymethylcellulose (CMC)) was 124 % of control. The T/C (dose: 1600.0 mg/kg/injection, schedule: Q01DX010 (oral), vehicle: carboxymethylcellulose (CMC)) was 214 % of control, the T/C (dose: 2000.0 mg/kg/injection, schedule: Q03HX024 (oral), vehicle: water) was 226 % of control and the T/C (dose: 2400.0 mg/kg/injection, schedule: Q01DX009 (ip), vehicle: other) was 112 % of control. The T/C (dose: 2400.0 mg/kg/injection, schedule: Q04DX003 (ip), vehicle: other) was 214 % of control.

`COc1ccc(NC(=O)Nc2onc(C)c2C)c(Cl)c1` was tested, and the T/C [7] was 95 % of control, the T/C [10] was 94 % of control and 100 % of control and the T/C (dose: 100.0 mg/kg/injection, schedule: Q04DX002 (ip), vehicle: Klucel (hydroxypropylcellulose) (HPC)) was 101 % of control. The T/C [11] was 87 % of control, the T/C [8] was 97 % of control and the T/C [12] was 95 % of control and 88 % of control. For the same compound, the T/C (dose: 200.0 mg/kg/injection, schedule: Q04DX002 (ip), vehicle: Klucel (hydroxypropylcellulose) (HPC)) was 95 % of control and 101 % of control, the T/C [13] was 97 % of control and the T/C [9] was 104 % of control. For the same compound, the T/C (dose: 400.0 mg/kg/injection, schedule: Q01DX009 (ip), vehicle: Klucel (hydroxypropylcellulose) (HPC)) was 93 % of control and 95 % of control, the T/C (dose: 400.0 mg/kg/injection, schedule: Q04DX002 (ip), vehicle: Klucel (hydroxypropylcellulose) (HPC)) was 96 % of control and the T/C [14] was 88 % of control. The T/C (dose: 4000.0 mg/kg/injection, schedule: Q04DX002 (ip), vehicle: Klucel (hydroxypropylcellulose) (HPC)) was 90 % of control.

With `O=C(Nc1ccc(C2=NCCN2)cc1)c1cccc(C(=O)Nc2ccc(C3=NCCN3)cc2)n1` the T/C (dose: 15.0 mg/kg/injection, schedule: Q01DX Z (ip), vehicle: methylcellulose (MC)) was 96 % of control, the T/C (dose: 30.0 mg/kg/injection, schedule: Q01DX Z (ip), vehicle: methylcellulose (MC)) was 93 % of control and the T/C (dose: 60.0 mg/kg/injection, schedule: Q01DX Z (ip), vehicle: methylcellulose (MC)) was 104 % of control and 111 % of control. For the same compound, the T/C (dose: 240.0 mg/kg/injection, schedule: Q01DX Z (ip), vehicle: methylcellulose (MC)) was 120 % of control and the T/C (dose: 480.0 mg/kg/injection, schedule: Q01DX Z (ip), vehicle: methylcellulose (MC)) was 95 % of control.

With `COc1cc(CCN)ccc1O` the T/C [2] was 87 % of control, the T/C [4] was 90 % of control and the T/C (dose: 400.0 mg/kg/injection, schedule: Q01DX009 (ip), vehicle: saline) was 95 % of control.

`O=C1CCC(=O)N1CCCO` was tested, and the T/C [3] was 107 % of control, the T/C [5] was 100 % of control and the T/C [6] was 104 % of control.

With `CCC[As](=O)(O)CCC` the T/C (dose: 25.0 mg/kg/injection, schedule: Q01DX009 (ip), vehicle: saline) was 107 % of control, the T/C [1] was 112 % of control and the T/C [3] was 111 % of control.

For `NC(=O)C(N)CCO` (stereo not given), the T/C (dose: 75.0 mg/kg/injection, schedule: Q04DX003 (ip), vehicle: saline) was 104 % of control, the T/C (dose: 150.0 mg/kg/injection, schedule: Q04DX003 (ip), vehicle: saline) was 104 % of control and the T/C (dose: 300.0 mg/kg/injection, schedule: Q04DX003 (ip), vehicle: saline) was 100 % of control.

— PubChem BioAssay AID248 (DTP/NCI, 2004)
